This note sets out measurements from patent publication US20250243208A1, “BICYCLIC HETEROCYCLES AS MRGPRX2 ANTAGONISTS” (Incyte Corporation, priority 2024, published 2025).

For this test, the target named is T1, MRGPRX2 (Homo sapiens, UniProt Q96LB1).
T1 sequence (Q96LB1 1-330): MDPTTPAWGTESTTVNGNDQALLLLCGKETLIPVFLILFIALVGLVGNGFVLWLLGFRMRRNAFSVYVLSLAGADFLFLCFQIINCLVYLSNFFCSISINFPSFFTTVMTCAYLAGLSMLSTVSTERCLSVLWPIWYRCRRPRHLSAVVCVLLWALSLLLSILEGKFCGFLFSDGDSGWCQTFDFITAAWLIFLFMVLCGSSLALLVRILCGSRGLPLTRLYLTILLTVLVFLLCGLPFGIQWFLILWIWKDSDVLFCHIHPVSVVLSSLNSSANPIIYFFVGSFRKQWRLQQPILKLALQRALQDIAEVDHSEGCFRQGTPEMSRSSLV
As to the kind of experiment: MRGPRX2 β-Arrestin recruitment assay (PathHunter CHO-K1). The class given is cell-based. Also on record: host or cells: PathHunter CHO-K1. The conditions noted are these: PathHunter CHO-K1 cells, agonist Cortistatin 14 0.25 μM. The source says:
Example C: MRGPRX2 β-Arrestin Assay
This assay measures compound inhibition of β-Arrestin recruitment, which is part of the G protein-independent pathway that results from the ligand-activated GPCR phosphorylation by specific GPCR kinases. The PathHunter CHO-K1 MRPGRX2 B-Arrestin Cell line stably expressing ProLink tagged MRGPRX2 and Enzyme Acceptor Tagged B-Arrestin was purchased from Eurofins DiscoverX, (Fremont, CA).
The cells were maintained in culture medium from the Europhins DiscoverX Cell Culture Kit-107 which includes FBS, hygromycin B and G418. For the assay, the cells were harvested and were resuspended with Cell Plating Reagent 2 (Eurofins DiscoverX). Cells were added 10000 cells in 25 μL/well to a 384-well black cell culture plate (Greiner VWR, Radnor, PA) which contained 125 nL/well of compound at a selected serially diluted concentration range or DMSO. The plate was incubated at 37° C. with 5% CO2 for 1 h. 2 μL/well of agonist Cortistatin 14 was diluted in Protein Dilution Buffer, (Eurofins DiscoverX) for a final concentration of 0.25 μM, was added and the plate was incubated at 37° C. with 5% CO2 for 90 min. 14 μL/well of Detection Reagent Mix (PathHunter Detection Kit, Eurofins DiscoverX) was added to the plates and further incubated for 1 h in the dark. Plates were read on the PHERAstar microplate reader (BMG Labtech Cary, NC) measuring luminescence 0.1 to 1 s per well. Data was normalized using DMSO only wells and wells with high concentration of reference antagonist as controls. Compound IC50 curves were globally fitted with 3- or 4-parameter Hill equation in a Genedata Screener (Genedata Basel, Switzerland).

What is called pIC50 is the IC50 on a negative log10 scale, so that one unit is a factor of ten. Higher therefore signals a small IC50.

pIC50: −log10 of the molar value.

On to `C[C@@]1(O)CCN(C(CNc2cc(C(F)(F)F)nc3cc(C(F)(F)F)nn23)c2ccc(F)cc2)C1` (mixture of isomers) [Example 30, (3R)-1-(2-((2,5-Bis(trifluoromethyl)pyrazolo[1,5-a]pyrimidin-7-yl)amino)-1-(4-fluorophenyl)ethyl)-3-methylpyrrolidin-3-ol], for which the pIC50 is 7.00 to 10.00. `OC[C@H]1CCN(C(CNc2cc(C(F)(F)F)nc3cc(C(F)(F)F)nn23)c2ccc(F)cc2)C1` (mixture of isomers) [Example 31, ((3S)-1-(2-((2,5-Bis(trifluoromethyl)pyrazolo[1,5-a]pyrimidin-7-yl)amino)-1-(4-fluorophenyl)ethyl)pyrrolidin-3-yl)methanol] had a pIC50 of 7.00 to 10.00. The figure for `OC1CCC12CN(C(CNc1cc(C(F)(F)F)nc3cc(C(F)(F)F)nn13)c1ccc(F)cc1)C2` (mixture of isomers) [Example 34, 2-(2-((2,5-Bis(trifluoromethyl)pyrazolo[1,5-a]pyrimidin-7-yl)amino)-1-(4-fluorophenyl)ethyl)-2-azaspiro[3.3]heptan-5-ol] is 7.00 to 10.00; for `CCC(CNc1cc(C(F)(F)F)nc2cc(C(F)(F)F)nn12)(c1ccc(F)cc1)C1CN(C(N)=O)C1` (racemic) [Example 1, 3-(1-((2,5-Bis(trifluoromethyl)pyrazolo[1,5-a]pyrimidin-7-yl)amino)-2-(4-fluorophenyl)butan-2-yl)azetidine-1-carboxamide] it is 7.00 to 10.00; for `CC(CNc1cc(C(F)(F)F)nc2cc(C(F)(F)F)nn12)(c1ccc(F)cc1)C1CCN(C(N)=O)CC1` (racemic) [Example 2, 4-(1-((2,5-Bis(trifluoromethyl)pyrazolo[1,5-a]pyrimidin-7-yl)amino)-2-(4-fluorophenyl)propan-2-yl)piperidine-1-carboxamide] it is 7.00 to 10.00. The result for `Cn1nc(N2CC(C(C)(CNc3cc(C(F)(F)F)nc4cc(C(F)(F)F)nn34)c3ccc(F)cc3)C2)ccc1=O` (racemic) [Example 12, 6-(3-(1-((2,5-Bis(trifluoromethyl)pyrazolo[1,5-a]pyrimidin-7-yl)amino)-2-(4-fluorophenyl)propan-2-yl)azetidin-1-yl)-2-methylpyridazin-3(2H)-one] reads 7.00 to 10.00.

In turn, `NC(=O)N1CCC(C(CNc2cc(C(F)(F)F)nc3cc(C(F)(F)F)nn23)c2ccc(F)cc2)CC1` (racemic) [Example 15, 4-(2-((2,5-Bis(trifluoromethyl)pyrazolo[1,5-a]pyrimidin-7-yl)amino)-1-(4-fluorophenyl)ethyl)piperidine-1-carboxamide] gave a pIC50 of 7.00 to 10.00. The result for `NC(=O)N1CC(C(CO)(CNc2cc(C(F)(F)F)nc3cc(C(F)(F)F)nn23)c2ccc(F)cc2)C1` (racemic) [Example 21, 3-(1-((2,5-Bis(trifluoromethyl)pyrazolo[1,5-a]pyrimidin-7-yl)amino)-2-(4-fluorophenyl)-3-hydroxypropan-2-yl)azetidine-1-carboxamide] reads 7.00 to 10.00.

With `OC1CCC2(CC1)CN(C(CNc1cc(C(F)(F)F)nc3cc(C(F)(F)F)nn13)c1ccc(F)cc1)C2` (racemic) [Example 23, 2-(2-((2,5-Bis(trifluoromethyl)pyrazolo[1,5-a]pyrimidin-7-yl)amino)-1-(4-fluorophenyl)ethyl)-2-azaspiro[3.5]nonan-7-ol], the pIC50 was 7.00 to 10.00. Molecule `Fc1ccc(C(CNc2cc(C(F)(F)F)nc3cc(C(F)(F)F)nn23)N2CC(c3ccccn3)C2)cc1` (racemic) [Example 24, N-(2-(4-Fluorophenyl)-2-(3-(pyridin-2-yl)azetidin-1-yl)ethyl)-2,5-bis(trifluoromethyl)pyrazolo[1,5-a]pyrimidin-7-amine] gave a negative logarithm of the IC50 (pIC50) of 7.00 to 10.00.

`Cn1cc(NC2CN(C(CNc3cc(C(F)(F)F)nc4cc(C(F)(F)F)nn34)c3ccc(F)cc3)C2)nn1` (racemic) [Example 27, N-(2-(4-Fluorophenyl)-2-(3-((1-methyl-1H-1,2,3-triazol-4-yl)amino)azetidin-1-yl)ethyl)-2,5-bis(trifluoromethyl)pyrazolo[1,5-a]pyrimidin-7-amine] showed a pIC50 of 7.00 to 10.00. The figure for `Cn1ccnc1NC1CN(C(CNc2cc(C(F)(F)F)nc3cc(C(F)(F)F)nn23)c2ccc(F)cc2)C1` (racemic) [Example 28, N-(2-(4-Fluorophenyl)-2-(3-((1-methyl-1H-imidazol-2-yl)amino)azetidin-1-yl)ethyl)-2,5-bis(trifluoromethyl)pyrazolo[1,5-a]pyrimidin-7-amine] is 7.00 to 10.00; for `O=C1CCC2(CN(C(CNc3cc(C(F)(F)F)nc4cc(C(F)(F)F)nn34)c3ccc(F)cc3)C2)N1` (racemic) [Example 32, 2-(2-((2,5-Bis(trifluoromethyl)pyrazolo[1,5-a]pyrimidin-7-yl)amino)-1-(4-fluorophenyl)ethyl)-2,5-diazaspiro[3.4]octan-6-one] it is 7.00 to 10.00. The result for `NC(=O)N1CC2(CCN(C(CNc3cc(C(F)(F)F)nc4cc(C(F)(F)F)nn34)c3ccc(F)cc3)C2)C1` (racemic) [Example 33, 6-(2-((2,5-Bis(trifluoromethyl)pyrazolo[1,5-a]pyrimidin-7-yl)amino)-1-(4-fluorophenyl)ethyl)-2,6-diazaspiro[3.4]octane-2-carboxamide] reads 7.00 to 10.00.

In turn, `N#CC1(C(=O)N2CC3(C2)CN(C(CNc2cc(C(F)(F)F)nc4cc(C(F)(F)F)nn24)c2ccc(F)cc2)C3)CC1` (racemic) [Example 38, 1-(6-(2-((2,5-Bis(trifluoromethyl)pyrazolo[1,5-a]pyrimidin-7-yl)amino)-1-(4-fluorophenyl)ethyl)-2,6-diazaspiro[3.3]heptane-2-carbonyl)cyclopropane-1-carbonitrile] gave a negative logarithm of the IC50 (pIC50) of 7.00 to 10.00. The figure for `O=C(CO)N1CC2(C1)CN(C(CNc1cc(C(F)(F)F)nc3cc(C(F)(F)F)nn13)c1ccc(F)cc1)C2` (racemic) [Example 39, 1-(6-(2-((2,5-Bis(trifluoromethyl)pyrazolo[1,5-a]pyrimidin-7-yl)amino)-1-(4-fluorophenyl)ethyl)-2,6-diazaspiro[3.3]heptan-2-yl)-2-hydroxyethan-1-one] is 7.00 to 10.00. `[2H]C([2H])([2H])NC(=O)N1CC2(C1)CN(C(CNc1cc(C(F)(F)F)nc3cc(C(F)(F)F)nn13)c1ccc(F)cc1)C2` (racemic) [Example 40, 6-(2-((2,5-Bis(trifluoromethyl)pyrazolo[1,5-a]pyrimidin-7-yl)amino)-1-(4-fluorophenyl)ethyl)-N-(methyl-d3)-2,6-diazaspiro[3.3]heptane-2-carboxamide] had a pIC50 of 7.00 to 10.00.

In turn, `O=C(NCC(F)(F)F)N1CC2(C1)CN(C(CNc1cc(C(F)(F)F)nc3cc(C(F)(F)F)nn13)c1ccc(F)cc1)C2` (racemic) [Example 41, 6-(2-((2,5-Bis(trifluoromethyl)pyrazolo[1,5-a]pyrimidin-7-yl)amino)-1-(4-fluorophenyl)ethyl)-N-(2,2,2-trifluoroethyl)-2,6-diazaspiro[3.3]heptane-2-carboxamide] showed a pIC50 of 7.00 to 10.00. The figure for `O=C1NC2(CO1)CN(C(CNc1cc(C(F)(F)F)nc3cc(C(F)(F)F)nn13)c1ccc(F)cc1)C2` (racemic) [Example 42, 2-(2-((2,5-Bis(trifluoromethyl)pyrazolo[1,5-a]pyrimidin-7-yl)amino)-1-(4-fluorophenyl)ethyl)-7-oxa-2,5-diazaspiro[3.4]octan-6-one] is 7.00 to 10.00.
